Measurements taken from patent US9211311B2, “Methods for the treatment of neurodegenerative disorders” (priority 2010, dated 2015).

Test system: male patients exhibiting PD-induced symptoms
Assay: Motor portion of the Unified Parkinson's Disease Rating Scale (UPDRS) before and after intranasal oxytocin
Format: in vivo, human
Conditions: 40 IU intranasal oxytocin; for UPDRS total score after oxytocin therapy: off medications, reassessed 45 minutes to one hour after dosing, items rated 0-4, lower = less severe
Method: The participants were in their “off” period, wherein they were taken off their current medications prior to oxytocin therapy. During the experiment, each participant was given 40 IU ([…]) of intranasal oxytocin. The synthetic form of oxytocin was administered by way of an inhaler, such as those used in nasal spray decongestants. Five pumps of the inhaler were dispensed into the left nostril of the participants; the participants were asked to inhale deeply through the nose. Five more pumps were dispensed into the right nostril of the participants and again the participants were asked to inhale deeply. This process was repeated so that, in total, the participants received forty pumps of the inhaler, twenty per nostril.
Immediately following oxytocin infusion, the participants were given a battery of physical and cognitive tests, lasting about fifteen to twenty minutes. These tests included the Motor portion of the Unified Parkinson's Disease Rating Scale (UPDRS) as well as a cognitive test used to establish the mental and emotional status of the participants. For each test, the participants were rated on a scale of zero to four, with four being the symptoms at its most severe state.
After administration of oxytocin, the participants were asked to wait for 45 minutes to one hour, wherein they passed the time by reading, conversing or simply relaxing. Subsequently, the motor skills of the participants were assessed again using the UPDRS. The administration of the UPDRS the first time was to quantifiably evaluate the patient's symptoms uninfluenced by oxytocin infusion, whereas the second administration of the UPDRS test served to quantifiably assess the motor condition of the patient under the influence of oxytocin.
The participants remained under direct supervision throughout the experiment to ensure their comfort and well-being. Once the experimental procedure was completed, the participants were able to leave the clinic and were asked to continue taking their normal medications. The participants were not in any way restricted in their activities for the rest of the day.

lasting effects due to the administration of oxytocin (three male PD patients, observed under supervision throughout the experiment): not any lasting effects apparent
Compound: CC[C@H](C)[C@@H]1NC(=O)[C@H](Cc2ccc(O)cc2)NC(=O)[C@@H](N)CSSC[C@@H](C(=O)N2CCC[C@H]2C(=O)N[C@@H](CC(C)C)C(=O)NCC(N)=O)NC(=O)[C@H](CC(N)=O)NC(=O)[C@H](CCC(N)=O)NC1=O [oxytocin]
UPDRS total score after oxytocin therapy (participant 1, initial total score 24): 17 | decrease in UPDRS total score after oxytocin therapy (participant 1, versus initial total score 24): 30% | UPDRS total score after oxytocin therapy (participant 2, initial total score 37.5): 34.5 | decrease in UPDRS total score after oxytocin therapy (participant 2, versus initial total score 37.5): 8% | UPDRS total score after oxytocin therapy (participant 3, initial total score 17.5): 9.5 | decrease in UPDRS total score after oxytocin therapy (participant 3, versus initial total score 17.5): 50%
